Common to all, as to assay type: cell-based
Assay [1] deals with Chrysosporium keratinophilum. Nature of the assay: Agar plate disc-diffusion, antifungal inhibition zone. The conditions noted are these: Sabouraud's dextrose agar, 37° C., 72 h, DMSO control zone subtracted. As for the experimental part: (§1) The agar plate disc-diffusion method was applied. […] The discs were then placed onto the surface of agar plates (nutrient agar for bacteria and Sabouraud's dextrose agar for fungi) seeded with the test organism. Each plate contained 15 mL of the agar medium, previously seeded with 0.2 mL of the broth culture of each organism pregrown for 18 h. The plates were incubated at 37° C. for 48 h, and 72 h for fungi. The inhibition zones was measured in mm. Discs impregnated with DMSO were used as a control, and its inhibition zone was subtracted from the tested compound actual inhibition zone.
On the technique in general: In agar diffusion tests the substance spreads into inoculated agar from a disc or well.

Another assay relates to Aspergillus flavus. The description is as above. The conditions noted are these: Sabouraud's dextrose agar, 37° C., 72 h, DMSO control zone subtracted. The method, then: as §1
Another assay has as its system Escherichia coli. The experiment in a line: Agar plate disc-diffusion, antibacterial inhibition zone. The conditions noted are these: nutrient agar, 37° C., 48 h, DMSO control zone subtracted. The method, then: as §1
The subject of a further assay is Pseudomonas aeruginosa. Described as above. The conditions noted are these: nutrient agar, 37° C., 48 h, DMSO control zone subtracted. As for the experimental part:
as §1

The subject of a further assay is Bacillus cereus. The assay is described as above. The conditions noted are these: nutrient agar, 37° C., 48 h, DMSO control zone subtracted. The method, then: as §1
A further assay deals with Staphylococcus aureus. Described as above. The conditions noted are these: nutrient agar, 37° C., 48 h, DMSO control zone subtracted. The method, then: as §1
[2] abbreviates: A = concentration of comp. = 10,000 μL.
The mark [3] stands for this setting: B = concentration of comp. = 30,000 μL.
Setting [4] is: C = concentration of comp. = 50,000 μL.

As for `O=C(O)CSc1nnc(-c2cccc(F)c2)n1-c1ccccc1` [III, 2-(5-(3-fluorophenyl)-4-phenyl-4H-1,2,4-triazol-3-ylthio)acetic acid], the “inhibition zone, Chrysosporium keratinophilum, A” value in assay [1] (setting [2]) stood at 24 mm. Further, in assay [1] (setting [3]), the “inhibition zone, Chrysosporium keratinophilum, B” value came out at 27 mm. For the same compound, the “inhibition zone, Chrysosporium keratinophilum, C” value in assay [1] (setting [4]) came out at 44 mm. For the same compound, the “inhibition zone, Aspergillus flavus, A” value in the assay on Aspergillus flavus (setting [2]) worked out at 20 mm. Further, in the assay on Aspergillus flavus (setting [3]), the “inhibition zone, Aspergillus flavus, B” value is recorded as 27 mm. The “inhibition zone, Aspergillus flavus, C” value in the assay with Aspergillus flavus (setting [4]) stood at 36 mm. In addition, the “inhibition zone, Escherichia coli, A” value with Escherichia coli (A =) came out at 22 mm. In the assay on Escherichia coli (setting [3]), the “inhibition zone, Escherichia coli, B” value came out at 30 mm. Besides, in the assay with Escherichia coli (setting [4]), the “inhibition zone, Escherichia coli, C” value was determined as 49 mm. Also, in the assay with Pseudomonas aeruginosa (setting [2]), the “inhibition zone, Pseudomonas aeruginosa, A” value was 25 mm. In addition, in the assay with Pseudomonas aeruginosa (setting [3]), the “inhibition zone, Pseudomonas aeruginosa, B” value came out at 27 mm. Further, the “inhibition zone, Pseudomonas aeruginosa, C” value in the assay on Pseudomonas aeruginosa (setting [4]) is recorded as 46 mm. Further, in the assay on Bacillus cereus (setting [2]), the “inhibition zone, Bacillus Cereus, A” value turned out to be 23 mm. Also, the “inhibition zone, Bacillus Cereus, B” value in the assay on Bacillus cereus (setting [3]) came to 27 mm. The “inhibition zone, Bacillus Cereus, C” value in the assay with Bacillus cereus (setting [4]) worked out at 40 mm. For the same compound, the “inhibition zone, Staphylococcus aureus, A” value in the assay on Staphylococcus aureus (setting [2]) worked out at 15 mm. The “inhibition zone, Staphylococcus aureus, B” value in the assay on Staphylococcus aureus (setting [3]) was found to be 20 mm. The “inhibition zone, Staphylococcus aureus, C” value with Staphylococcus aureus (setting [4]) is on record as 24 mm.
